For experiment [1], the target named is T1, p185^erbB-2 receptor association with the Grb2 adapter protein (MDA-MB-453 cell lysates) (Homo sapiens, UniProt P62993).
T1 construct: endogenous in cells; host or cells: MDA-MB-453 breast cancer cells
Description: Inhibition of p185erbB-2 interaction with Grb2 in cell homogenates (anti-Grb2 immunoprecipitation, anti-pTyr Western blot). Format: biochemical. Here is the method:
Cell lysates were prepared from the serum-treated erbB-2-overexpressing breast cancer cell line MDA-MB-453 using 1% Triton X-100 in PBS containing 0.2 mM NaVO4. Lysates were incubated with the present inventive cyclic peptide inhibitors specified in Example 1 and Example 12, at concentrations of 0.1, 0.4, 2, 10 and 50 μM. No inhibitor was used as a control. Cell lysates were prepared using 1% Triton X-100 in PBS containing 0.2 mM NaVO4. Grb2 and associated Grb2-binding proteins were immunoprecipitated from each lysate (500 μg) with anti-Grb2 antibodies and collected using protein A Sepharose using methods previously described. Immunoprecipitated proteins were separated by SDS-PAGE on 8-16% gradient gels (Novex). pTyr-containing proteins were detected by Western blotting using anti-phosphotyrosine antibodies (Upstate Biotechnology Inc.). Previous experiments have shown that a major tyrosine phosphorylated protein in MDA-MB-453 cells is p185^erbB-2, which is overexpressed as a consequence of gene amplification. […] A dose-dependent inhibition of the p185^erbB-2 receptor association with the Grb2 adapter protein was observed.

Experiment [2] has as its target T2, p185^erbB-2/Grb2 association in MDA-MB-453 cells (Homo sapiens, UniProt P62993).
T2 construct: endogenous in cells; host or cells: MDA-MB-453 breast cancer cells
Description: Inhibition of intracellular p185erbB-2/Grb2 association in whole MDA-MB-453 cells. The class given is cell-based. As to conditions: for concentration of effective inhibition of p185erbB-2/Grb2 association in cells: whole MDA-MB-453 cells treated 3 hrs in serum-free IMEM, inhibitor 0.1-50 μM. As to the method:
The compound of Example 1, and the conjugate of Example 12, were tested in MDA-MB-453 cells (breast cancer cells that overexpress p185^erbB-2 receptor) at inhibitor concentrations of 0.1, 0.4, 2, 10 and 50 μM. In the control experiment, no inhibitor was used. The cells were treated for 3 hrs in serum-free IMEM medium. The cells were washed twice with ice-cold PBS to remove the residual inhibitory compound that was not internalized.
Cell lysates were prepared using 1% Triton X-100 in PBS containing 0.2 mM NaVO4. Grb2 and associated Grb2-binding proteins were immunoprecipitated from each lysate (500 μg) with anti-Grb2 antibodies and collected using protein A Sepharose using methods previously described. Immunoprecipitated proteins were separated by SDS-PAGE on 8-16% gradient gels (Novex). pTyr-containing proteins were detected by Western blotting using anti-phosphotyrosine antibodies (Upstate Biotechnology Inc.). Previous experiments have shown that a major tyrosine phosphorylated protein in MDA-MB-453 cells is p185^erbB-2, which is overexpressed as a consequence of gene amplification.
In these whole cell assays the agents were applied to the cell culture media of MDA-MB-453 cells. These conditions required that compounds transit through the cell membrane.

For experiment [3], the target named is recombinant GST-Grb2 SH2 protein (Homo sapiens, UniProt P62993). Briefly: Biacore Surface Plasmon Resonance competitive binding assay against immobilized SHC(pTyr-317)-9-mer phosphopeptide. The settings on record: Biacore SPR, GST-Grb2-SH2 150-250 nM, PBS pH 7.4; mean of at least two independent experiments; read-out: IC50 (concentration at which half-maximal competition was observed). Here is the method: The competitive binding affinity of the present inventive compounds was assessed using Biacore Surface Plasmon Resonance (SPR) methods utilizing a Biacore 2000 instrument. The concentrations at which half-maximal competition was observed (IC50) were determined by mixing the inhibitor with recombinant GST-Grb2 SH2 protein and measuring the amount of competitive binding at equilibrium to an immobilized (via biotin conjugation to streptavidin coated surface of the Biacore sensor chip SA; 2 nM concentration) SHC(pTyr-317)-9-mer phosphopeptide in a manner similar to that reported previously (Oligino et al. (1997), supra). Specifically, competitive binding assays were carried out at 5 μl/min flow rate, with GST-Grb2-SH2 (150-250 nM) and a cyclic peptide inhibitor (10 nM-2 mM) in phosphate-buffered saline (PBS), pH 7.4, containing 0.01% P-20 surfactant (Biacore, Inc., Piscataway, N.J.) for a total of 10 min. The change in response units (RU) at equilibrium was measured from the absorption profiles and the percent of control (no added peptide) was calculated. […] The results represent the mean value of at least two independent experiments.
Chain of recombinant GST-Grb2 SH2 protein (P62993 60-152 limits assumed): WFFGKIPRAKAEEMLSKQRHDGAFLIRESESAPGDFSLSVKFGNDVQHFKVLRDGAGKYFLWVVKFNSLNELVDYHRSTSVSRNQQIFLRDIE

The target of another experiment is SH2 domain of Grb2 (Homo sapiens, UniProt P62993). As to conditions: background, previously reported values; read-out: IC50 (receptor affinity); cited from earlier work.
Chain of SH2 domain of Grb2 (P62993 60-152 limits assumed): as above

Read-outs that look alike come from different tables or passages of the source. Where a SMILES comes first, the peptide text is derived from it. Bridges are numbered along the chain shown (N, C = ends). Where no end group is shown, it is not given here. [ ]: non-standard residue; d: D form. pY = N[C@@H](Cc1ccc(OP(=O)(O)O)cc1)C(=O)O; Gla = N[C@@H](CC(C(=O)O)C(=O)O)C(=O)O

T2 sequence (P62993 whole entry): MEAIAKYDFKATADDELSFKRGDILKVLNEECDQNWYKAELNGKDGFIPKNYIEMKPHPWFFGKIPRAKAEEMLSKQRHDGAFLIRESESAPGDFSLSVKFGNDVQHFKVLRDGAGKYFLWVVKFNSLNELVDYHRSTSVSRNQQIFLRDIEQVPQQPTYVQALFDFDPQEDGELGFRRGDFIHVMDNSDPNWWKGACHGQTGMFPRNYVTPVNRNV
T1 sequence (P62993 whole entry): as above

On to `CSCC[C@@H]1NC(=O)CNC(=O)[C@H](C(C)C)NC(=O)[C@H](CC(N)=O)NC(=O)[C@H](CCC(=O)O)NC(=O)[C@H](Cc2ccc(O)cc2)NC(=O)[C@H](CC(C)C)NC(=O)[C@H](CC(C(=O)O)C(=O)O)NC(=O)CSC[C@@H](C(N)=O)NC(=O)[C@H](Cc2ccc(O)cc2)NC1=O` [Example 1, cyclo(CH2CO-Gla^1-Leu^2-Tyr^3-Glu^4-Asn^5-Val^6-Gly^7-Met^8-Tyr^9-Cys)-amide] ({CH2CO}-[Gla]LYENVGMYC-NH2; thioether N-10), for which the IC50 in experiment [1] (MDA-MB-453 cell lysates, inhibitor 0.1-50 μM, read-out: half-maximal inhibition of p185erbB-2/Grb2 protein association) was 2 µM; in experiment [3] it was 0.64 ± 0.1 µM. Further, the “concentration of effective inhibition of p185erbB-2/Grb2 association in cells” value in experiment [2] was determined as 50 µM.
For `CSCC[C@@H]1NC(=O)CNC(=O)[C@H](C(C)C)NC(=O)[C@H](CC(N)=O)NC(=O)[C@H](CCC(=O)O)NC(=O)[C@H](Cc2ccc(O)cc2)NC(=O)[C@H](CC(C)C)NC(=O)[C@H](CC(C(=O)O)C(=O)O)NC(=O)CSC[C@@H](C(=O)N[C@@H](C)C(=O)N[C@@H](C)C(=O)N[C@H](C(=O)N[C@@H](C)C(=O)N[C@@H](CC(C)C)C(=O)N[C@@H](CC(C)C)C(=O)N2CCC[C@H]2C(=O)N[C@@H](C)C(=O)N[C@H](C(=O)N[C@@H](CC(C)C)C(=O)N[C@@H](CC(C)C)C(=O)N[C@@H](C)C(=O)N[C@@H](CC(C)C)C(=O)N[C@@H](CC(C)C)C(=O)N[C@@H](C)C(=O)N2CCC[C@H]2C(N)=O)C(C)C)C(C)C)NC(=O)[C@H](Cc2ccc(O)cc2)NC1=O` [Example 12, cyclo(CH2CO-Gla^1-Leu^2-Tyr^3-Glu^4-Asn^5-Val^6-Gly^7-Met^8-Tyr^9-Cys)-NH-Ala-Ala-Val-Ala-Leu-Leu-Pro-Ala-Val-Leu-Leu-Ala-Leu-Leu-Ala-Pro] ({CH2CO}-[Gla]LYENVGMYCAAVALLPAVLLALLAP-NH2; thioether N-10), in experiment [1], the IC50 is 2 µM. Further, in experiment [2] (whole MDA-MB-453 cells pre-treated with increasing amounts), the “reduction in the associated p185erbB-2 bound to Grb2 in cells” value is recorded as “clear dose-dependent reduction”. Besides, the “concentration of effective inhibition of p185erbB-2/Grb2 association in cells” value in experiment [2] turned out to be 2 µM.
For the compound “SHC(pY^317)-9-mer: segment of the naturally phosphorylated ligand (DDPS[pY]VNVQ)”, in the experiment with SH2 domain of Grb2, the IC50 was 1 µM.

The values above are taken from patent US7259142B2, “Redox-stable, non-phosphorylated cyclic peptide inhibitors of SH2 domain binding to target protein, conjugates thereof, compositions and methods of synthesis and use” (The United States of America, represented by the Secretary, …, priority 1999, dated 2007).
